Test results from patent US8022091B2, “Triazole derivative” (Taisho Pharmaceutical Co., Ltd., priority 2006, dated 2011).

What was measured:
human Edg-1 (S1P1) = target: T1, human Edg-1 (S1P1) (Homo sapiens, UniProt P21453); assay: S1P1 binding assay: inhibition of [33P]-S1P binding to membrane fraction of HEK-293 cells transferred with the human Edg-1 (S1P1) gene; settings: for inhibition at 10 µM: test compound at 10 μM, inhibition of [33P]-S1P binding to the membrane fraction of HEK-293 cells expressing human Edg-1 (S1P1); for IC50: [33P]-S1P 0.1 nM, human Edg-1 (S1P1) HEK-293 membrane fraction, 1 h at 30° C., read-out: IC50 (concentration at which binding in the absence of the test compound was inhibited by 50%)
T1 construct: expressed in transfected cells; host or cells: HEK-293
In short: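 Membranes from S1P1-transfected HEK-293 cells incubated 1 h at 30° C in pH 7.4 Tris buffer with fatty acid-free BSA, 0.1 nM [33P]-S1P and test compound (0.1% DMSO). Filter-bound radioactivity was counted; inhibition corrected for binding to untransfected-cell membranes, and IC50 derived from concentration series.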

T1 sequence (P21453 whole entry): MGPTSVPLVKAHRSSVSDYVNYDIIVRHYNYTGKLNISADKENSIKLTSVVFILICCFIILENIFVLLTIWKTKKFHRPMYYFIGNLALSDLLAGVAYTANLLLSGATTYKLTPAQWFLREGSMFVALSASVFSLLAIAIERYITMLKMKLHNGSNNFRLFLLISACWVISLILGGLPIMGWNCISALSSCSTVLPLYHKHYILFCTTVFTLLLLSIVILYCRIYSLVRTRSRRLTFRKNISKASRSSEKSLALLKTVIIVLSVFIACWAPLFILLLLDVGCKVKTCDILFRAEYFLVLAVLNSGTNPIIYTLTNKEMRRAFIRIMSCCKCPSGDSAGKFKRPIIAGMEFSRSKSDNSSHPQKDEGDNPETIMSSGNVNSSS

Q: Which results are given for `CCn1c(Oc2cc(C)ccn2)nnc1[C@@H](C)NS(=O)(=O)c1ccc(Cl)c(Cl)c1` [Compound 66]?
A: inhibition at 10 µM (human Edg-1 (S1P1)): 93.4%; melting point: 183 to 190 °C

Q: With `CCn1c(Oc2ccc(C)cn2)nnc1[C@@H](C)NS(=O)(=O)c1ccc(Cl)c(Cl)c1` [Compound 67] as the compound, how does the inhibition at 10 µM (human Edg-1 (S1P1)) read?
A: Its inhibition at 10 µM is 95.5%.

Q: And the melting point?
A: The melting point was 182 to 188 °C.

Q: For `CCn1c(Oc2ccc3c(c2)CCC(=O)N3)nnc1[C@@H](C)NS(=O)(=O)c1ccc(Cl)c(Cl)c1` [Compound 68], which inhibition at 10 µM (human Edg-1 (S1P1)) is on record?
A: Its inhibition at 10 µM is 101%.

Q: And the melting point?
A: Its melting point is 212 to 223 °C.

Q: What does the source list for `CCn1c(Oc2cccc(OC)c2)nnc1[C@@H](C)NS(=O)(=O)c1ccc(Cl)c(Cl)c1` [Compound 69]?
A: IC50 (human Edg-1 (S1P1)): ≤ 0.035 µM; inhibition at 10 µM (human Edg-1 (S1P1)): 103%; melting point: 119 to 120.5 °C

Q: For `CCN(CC)c1cccc(Oc2nnc([C@@H](C)NS(=O)(=O)c3ccc(Cl)c(Cl)c3)n2CC)c1` [Compound 70], which IC50 (human Edg-1 (S1P1)) is on record?
A: Its IC50 is no more than 0.01 µM.

Q: And the inhibition at 10 µM (human Edg-1 (S1P1))?
A: Its inhibition at 10 µM is 96.5%.

Q: What about the melting point of the same compound?
A: Its melting point is 144 to 146 °C.

Q: Which results are given for `CCn1c(Oc2cccc(C)n2)nnc1[C@@H](C)NS(=O)(=O)c1ccc(Cl)c(Cl)c1` [Compound 71]?
A: inhibition at 10 µM (human Edg-1 (S1P1)): 99.3%; melting point: 126 to 135 °C

Q: For `CCn1c(Oc2ccc3cccnc3c2)nnc1[C@@H](C)NS(=O)(=O)c1ccc(Cl)c(Cl)c1` [Compound 72], which inhibition at 10 µM (human Edg-1 (S1P1)) is on record?
A: The inhibition at 10 µM was 99%.

Q: And the melting point?
A: The melting point was 198 to 200.5 °C.

Q: Which IC50 (human Edg-1 (S1P1)) does the source give for `CCn1c(Oc2cccc(N3CCCCC3)c2)nnc1[C@@H](C)NS(=O)(=O)c1ccc(Cl)c(Cl)c1` [Compound 73] here?
A: Its IC50 is 0.0022 µM.

Q: And the inhibition at 10 µM (human Edg-1 (S1P1))?
A: Its inhibition at 10 µM is 103%.

Q: And the melting point?
A: Its melting point is 185 to 187 °C.

Q: Which IC50 (human Edg-1 (S1P1)) does the source give for `CCn1c(Oc2ccc3c(c2)NC(=O)CC3)nnc1[C@@H](C)NS(=O)(=O)c1ccc(Cl)c(Cl)c1` [Compound 74] here?
A: Its IC50 is 0.015 µM.

Q: And the inhibition at 10 µM (human Edg-1 (S1P1))?
A: The inhibition at 10 µM was 105%.

Q: And the melting point?
A: The melting point was 218.5 to 227 °C.

Q: With `CCn1c(Oc2cccc(N3CCC3)c2)nnc1[C@@H](C)NS(=O)(=O)c1ccc(Cl)c(Cl)c1` [Compound 75] as the compound, how does the IC50 (human Edg-1 (S1P1)) read?
A: The IC50 was no more than 0.01 µM.

Q: What about the inhibition at 10 µM (human Edg-1 (S1P1)) of the same compound?
A: Its inhibition at 10 µM is 95%.

Q: What about the melting point of the same compound?
A: Its melting point is 177 to 179 °C.

Q: For `CCn1c(Oc2cccc(N3C[C@@H](C)O[C@@H](C)C3)c2)nnc1[C@@H](C)NS(=O)(=O)c1ccc(Cl)c(Cl)c1` [Compound 76], which IC50 (human Edg-1 (S1P1)) is on record?
A: Its IC50 is no more than 0.035 µM.

Q: And the inhibition at 10 µM (human Edg-1 (S1P1))?
A: The inhibition at 10 µM was 99.2%.

Q: And the melting point?
A: Its melting point is 151.5 to 153.5 °C.

Q: For `CCn1c(Oc2cc(C(F)(F)F)n(C)n2)nnc1[C@@H](C)NS(=O)(=O)c1ccc(Cl)c(Cl)c1` [Compound 77], which inhibition at 10 µM (human Edg-1 (S1P1)) is on record?
A: The inhibition at 10 µM was 99.7%.

Q: What about the melting point of the same compound?
A: Its melting point is 123 to 127 °C.

Q: For `CCn1c(Oc2ccc3ncccc3c2)nnc1[C@@H](C)NS(=O)(=O)c1ccc(Cl)c(Cl)c1` [Compound 78], which inhibition at 10 µM (human Edg-1 (S1P1)) is on record?
A: Its inhibition at 10 µM is 90.7%.

Q: What about the melting point of the same compound?
A: Its melting point is 178 to 179 °C.

Q: Which inhibition at 10 µM (human Edg-1 (S1P1)) does the source give for `CCn1c(Oc2cccc(N3CCCC3)c2)nnc1[C@@H](C)NS(=O)(=O)c1ccc(Cl)c(Cl)c1` [Compound 79] here?
A: The inhibition at 10 µM was 104%.

Q: And the melting point?
A: The melting point was 190 to 195 °C.

Q: For `CCn1c(Oc2cc(C)nc(C)c2)nnc1[C@@H](C)NS(=O)(=O)c1ccc(Cl)c(Cl)c1` [Compound 80], which inhibition at 10 µM (human Edg-1 (S1P1)) is on record?
A: The inhibition at 10 µM was 87.6%.

Q: And the melting point?
A: The melting point was 164 to 165 °C.

Q: What does the source list for `CCn1c(Oc2ccc3c(c2)N=S=N3)nnc1[C@@H](C)NS(=O)(=O)c1ccc(Cl)c(Cl)c1` [Compound 81]?
A: inhibition at 10 µM (human Edg-1 (S1P1)): 93.2%; melting point: 160 to 165 °C

Q: With `CCn1c(Oc2cccc(N)c2)nnc1[C@@H](C)NS(=O)(=O)c1ccc(Cl)c(Cl)c1` [Compound 82, N-[(R)-1-[5-(3-Amino-phenoxy)-4-ethyl-4H-[1,2,4]triazol-3-yl]-ethyl]-3,4-dichlorobenzenesulfonamide] as the compound, how does the inhibition at 10 µM (human Edg-1 (S1P1)) read?
A: The inhibition at 10 µM was 101%.

Q: What about the melting point of the same compound?
A: Its melting point is 142 to 145 °C.

Q: With `CCn1c(Oc2cccc(N3CCN(CCN(C)C)CC3)c2)nnc1[C@@H](C)NS(=O)(=O)c1ccc(Cl)c(Cl)c1` [Compound 83] as the compound, how does the IC50 (human Edg-1 (S1P1)) read?
A: Its IC50 is 0.0081 µM.

Q: And the inhibition at 10 µM (human Edg-1 (S1P1))?
A: The inhibition at 10 µM was 101%.

Q: What about the melting point of the same compound?
A: Its melting point is 170 to 173 °C.

Q: With `CCn1c(Oc2cccc(NC(C)=O)c2)nnc1[C@@H](C)NS(=O)(=O)c1ccc(Cl)c(Cl)c1` [Compound 84] as the compound, how does the inhibition at 10 µM (human Edg-1 (S1P1)) read?
A: The inhibition at 10 µM was 100%.

Q: And the melting point?
A: The melting point was 160 to 165 °C.

Q: Which inhibition at 10 µM (human Edg-1 (S1P1)) does the source give for `CCn1c(Oc2cccc(-n3ccnc3)c2)nnc1[C@@H](C)NS(=O)(=O)c1ccc(Cl)c(Cl)c1` [Compound 85] here?
A: The inhibition at 10 µM was 100%.

Q: What about the melting point of the same compound?
A: Its melting point is 133 to 134 °C.

Q: For `CCn1c(Oc2cccc(-n3cccc3)c2)nnc1[C@@H](C)NS(=O)(=O)c1ccc(Cl)c(Cl)c1` [Compound 86, 3,4-Dichloro-N-[(R)-1-[4-ethyl-5-(3-pyrrol-1-phenoxy)-4H-[1,2,4]triazol-3-yl]-ethyl]-benzenesulfonamide], which inhibition at 10 µM (human Edg-1 (S1P1)) is on record?
A: The inhibition at 10 µM was 107%.

Q: And the melting point?
A: The melting point was 176 to 177 °C.

Q: For `CCn1c(Oc2cccc(-n3cnnc3)c2)nnc1[C@@H](C)NS(=O)(=O)c1ccc(Cl)c(Cl)c1` [Compound 89], which inhibition at 10 µM (human Edg-1 (S1P1)) is on record?
A: The inhibition at 10 µM was 90.3%.

Q: And the melting point?
A: The melting point was 101 to 103 °C.

Q: With `CCn1c(Oc2cccc(NC=O)c2)nnc1[C@@H](C)NS(=O)(=O)c1ccc(Cl)c(Cl)c1` [Compound 90, 3,4-Dichloro-N-[(R)-1-[4-ethyl-5-(3-formylamino-phenoxy)-4H-[1,2,4]triazol-3-yl]-ethyl]-benzenesulfonamide] as the compound, how does the inhibition at 10 µM (human Edg-1 (S1P1)) read?
A: Its inhibition at 10 µM is 99%.

Q: And the melting point?
A: Its melting point is 168 to 170 °C.

Q: With `CCn1c(Oc2cccc(NC(N)=O)c2)nnc1[C@@H](C)NS(=O)(=O)c1ccc(Cl)c(Cl)c1` [Compound 91, 3,4-Dichloro-N-[(R)-1-[4-ethyl-5-(3-ureido-phenoxy)-4H-[1,2,4]triazol-3-yl]-ethyl]-benzenesulfonamide] as the compound, how does the inhibition at 10 µM (human Edg-1 (S1P1)) read?
A: The inhibition at 10 µM was 90.6%.

Q: And the melting point?
A: The melting point was 137 to 138 °C.

Q: With `CCNC(=O)Nc1cccc(Oc2nnc([C@@H](C)NS(=O)(=O)c3ccc(Cl)c(Cl)c3)n2CC)c1` [Compound 92, 3,4-Dichloro-N-((R)-1-[4-ethyl-5-[3-(3-ethylureido)-phenoxy]-4H-[1,2,4]triazol-3-yl]-ethyl)-benzenesulfonamide] as the compound, how does the inhibition at 10 µM (human Edg-1 (S1P1)) read?
A: Its inhibition at 10 µM is 92.1%.

Q: And the melting point?
A: The melting point was 118 to 120 °C.

Q: For `CCn1c(Oc2cccc(N3CCC(O)CC3)c2)nnc1[C@@H](C)NS(=O)(=O)c1ccc(Cl)c(Cl)c1` [Compound 93, 3,4-Dichloro-N-((R)-1-[4-ethyl-5-[3-(4-hydroxy-piperidin-1-yl)-phenoxy]-4H-[1,2,4]triazol-3-yl]-ethyl)-benzenesulfonamide], which IC50 (human Edg-1 (S1P1)) is on record?
A: The IC50 was no more than 0.01 µM.

Q: What about the inhibition at 10 µM (human Edg-1 (S1P1)) of the same compound?
A: Its inhibition at 10 µM is 99.9%.

Q: And the melting point?
A: The melting point was 167.5 to 169.5 °C.

Q: Which IC50 (human Edg-1 (S1P1)) does the source give for `CCn1c(Oc2cccc(N3CCN(C(C)C)CC3)c2)nnc1[C@@H](C)NS(=O)(=O)c1ccc(Cl)c(Cl)c1` [Compound 94] here?
A: The IC50 was no more than 0.01 µM.

Q: And the inhibition at 10 µM (human Edg-1 (S1P1))?
A: Its inhibition at 10 µM is 106%.

Q: What about the melting point of the same compound?
A: The melting point was 190 to 192 °C.

Q: For `CCn1c(Oc2cc(C)cc(C)n2)nnc1[C@@H](C)NS(=O)(=O)c1ccc(Cl)c(Cl)c1` [Compound 95], which inhibition at 10 µM (human Edg-1 (S1P1)) is on record?
A: Its inhibition at 10 µM is 92.4%.

Q: And the melting point?
A: The melting point was 205 to 208.5 °C.

Q: For `CCn1c(Oc2cc3nc(C)cc(C)n3n2)nnc1[C@@H](C)NS(=O)(=O)c1ccc(Cl)c(Cl)c1` [Compound 96], which inhibition at 10 µM (human Edg-1 (S1P1)) is on record?
A: Its inhibition at 10 µM is 78.7%.

Q: What about the melting point of the same compound?
A: Its melting point is 191 to 194 °C.

Q: For `CCn1c(Oc2cccc(NC(=O)N(C)C)c2)nnc1[C@@H](C)NS(=O)(=O)c1ccc(Cl)c(Cl)c1` [Compound 97, 3,4-Dichloro-N-((R)-1-[5-[3-(3,3-dimethylureido)-phenoxy]-4-ethyl-4H-[1,2,4]triazol-3-yl]-ethyl)-benzenesulfonamide], which inhibition at 10 µM (human Edg-1 (S1P1)) is on record?
A: The inhibition at 10 µM was 93%.

Q: And the melting point?
A: Its melting point is 158 to 159 °C.

Q: For `CCn1c(Oc2cccc(NC(=O)N3CCOCC3)c2)nnc1[C@@H](C)NS(=O)(=O)c1ccc(Cl)c(Cl)c1` [Compound 98], which inhibition at 10 µM (human Edg-1 (S1P1)) is on record?
A: Its inhibition at 10 µM is 100%.

Q: And the melting point?
A: The melting point was 143 to 144 °C.
